# Read-outs that look alike come from different tables or passages of the source.
# Legend:
# CDK-2/cyclin A = CDK-2/cyclin A (Homo sapiens, UniProt P24941); assay: CDK inhibition assay, CDK-2/cyclin A against Histone HI, 33P-ATP; format: biochemical; conditions: at 500 nM
# Description: Compounds were evaluated for their ability to inhibit CDK2 and CDK9 as given below.
# CDK-2/cyclin A (5-20 mU diluted in 50 mM Hepes pH 7.5, 1 mM DTT, 0.02% Brij35, 100 mM NaCl) was assayed against Histone HI in a final volume of 25.5 µl containing 50 mM Hepes pH7.5, 1 mM DTT, 0.02% Brij35, 100 mM NaCl, Histone HI (1 mg/ml), 10 mM magnesium acetate and 0.02 mM [33P-g-ATP](500-1000 cpm/pmole) and incubated for 30 min at room temperature. Assays were stopped by addition of 5 µl of 0.5 M (3%) orthophosphoric acid and then harvested onto P81 Unifilter plates with a wash buffer of 50 mM orthophosphoric acid.
# CDK-9/Cyclin T1 = CDK-9/Cyclin T1 (Homo sapiens, UniProt P50750); assay: CDK inhibition assay, CDK-9/Cyclin T1 against substrate peptide, 33P-ATP; format: biochemical
# Sequence of CDK-9/Cyclin T1 (P50750 whole entry): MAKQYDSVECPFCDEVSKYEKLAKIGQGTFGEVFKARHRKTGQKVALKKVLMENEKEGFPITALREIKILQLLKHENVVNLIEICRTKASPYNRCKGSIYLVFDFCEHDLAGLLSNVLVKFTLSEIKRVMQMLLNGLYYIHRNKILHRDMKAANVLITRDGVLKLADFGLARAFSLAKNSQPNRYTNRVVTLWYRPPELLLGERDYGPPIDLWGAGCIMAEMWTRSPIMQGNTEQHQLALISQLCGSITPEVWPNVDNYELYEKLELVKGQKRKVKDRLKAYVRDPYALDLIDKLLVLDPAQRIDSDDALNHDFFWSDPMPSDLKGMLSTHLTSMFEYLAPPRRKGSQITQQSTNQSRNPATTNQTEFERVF
# Sequence of CDK-9/Cyclin T1 (O60563 whole entry partner): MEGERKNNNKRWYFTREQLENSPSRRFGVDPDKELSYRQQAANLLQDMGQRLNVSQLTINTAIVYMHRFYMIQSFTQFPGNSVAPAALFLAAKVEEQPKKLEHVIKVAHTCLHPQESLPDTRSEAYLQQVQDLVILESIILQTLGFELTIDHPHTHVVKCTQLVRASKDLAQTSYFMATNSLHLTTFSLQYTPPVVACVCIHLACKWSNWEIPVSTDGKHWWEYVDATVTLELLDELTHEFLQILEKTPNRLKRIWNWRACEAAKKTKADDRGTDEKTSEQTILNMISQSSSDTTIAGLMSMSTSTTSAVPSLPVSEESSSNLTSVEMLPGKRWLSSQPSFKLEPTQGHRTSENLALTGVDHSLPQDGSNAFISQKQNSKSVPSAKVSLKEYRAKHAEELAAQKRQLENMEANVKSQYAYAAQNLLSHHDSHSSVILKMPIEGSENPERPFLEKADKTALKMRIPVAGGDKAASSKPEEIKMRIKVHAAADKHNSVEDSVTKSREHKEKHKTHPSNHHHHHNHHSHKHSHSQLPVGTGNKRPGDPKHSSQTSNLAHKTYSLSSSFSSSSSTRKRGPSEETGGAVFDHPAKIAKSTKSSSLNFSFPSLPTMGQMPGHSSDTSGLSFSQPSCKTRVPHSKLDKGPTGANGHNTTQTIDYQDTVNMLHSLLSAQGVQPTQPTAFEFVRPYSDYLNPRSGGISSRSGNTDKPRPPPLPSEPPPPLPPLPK
# Description: (50-1000 cpm/pmole) and incubated for 30 min at room temperature. Assays were stopped by addition of 5 µl of 0.5 M (3%) orthophosphoric acid and then harvested onto P81 Unifilter plates with a wash buffer of 50 mM orthophosphoric acid.
# [1] = Table-6, read-out: In vitro CDK2 % of inhibition
# [2] = read-out: inhibition against CDK2
# [3] = at 500 nM, Table-6, read-out: In vitro CDK9 % of inhibition
# [4] = at 500 nM, read-out: inhibition against CDK9
# [5] = Table-7, read-out: In vitro CDK2 % of inhibition
# [6] = at 500 nM, Table-7, read-out: In vitro CDK9 % of inhibition
SMILES,inhibition at 0.5 µM (CDK-2/cyclin A; [1]),inhibition at 0.5 µM (CDK-2/cyclin A; [2]),inhibition at 0.5 µM (CDK-9/Cyclin T1; [3]),inhibition at 0.5 µM (CDK-9/Cyclin T1; [4]),inhibition at 0.5 µM (CDK-2/cyclin A; [5]),inhibition at 0.5 µM (CDK-9/Cyclin T1; [6]),"inhibition at 0.5 µM (CDK-9/Cyclin T1; read-out: In vitro CDK9 % of inhibition, at 500 nM, Table-6)"
"Clc1ccc(-c2cnc3[nH]cc(-c4ccnc(NC5CCCC5)n4)c3c2)cc1 [1A32, 4-(5-(4-chlorophenyl)-1H-pyrrolo [2,3-b]pyridin-3-yl)-N-cyclopentylpyrimidin-2-amine]",> 50%,> 50%,> 50%,> 50%,–,–,–
"O=Cc1ccc(-c2cnc3[nH]cc(-c4ccnc(NC5CCCC5)n4)c3c2)cc1 [1A33, 4-(3-(2-(cyclopentylamino)pyrimidin-4-yl)-1H-pyrrolo[2,3-b]pyridin-5-yl)benzaldehyde]",> 70%,–,> 50%,–,–,–,–
"c1ccc2[nH]c(-c3cnc4[nH]cc(-c5ccnc(NC6CCCCCC6)n5)c4c3)cc2c1 [1A59, 4-(5-(1H-indol-2-yl)-1H-pyrrolo[2,3-b]pyridin-3-yl)-N-cycloheptylpyrimidin-2-amine]",–,> 70%,–,> 70%,> 70%,> 70%,–
"CSc1ccc(-c2cnc3[nH]cc(-c4ccnc(NC5CC5)n4)c3c2)cc1 [1A8, N-cyclopropyl-4-(5-(4-(methylthio)phenyl)-1H-pyrrolo[2,3-b]pyridin-3-yl)pyrimidin-2-amine]",> 70%,> 70%,> 70%,> 70%,–,–,–
"O=Cc1ccc(-c2cnc3[nH]cc(-c4ccnc(NC5CC5)n4)c3c2)cc1 [1A13, 4-(3-(2-(cyclopropylamino)pyrimidin-4-yl)-1H-pyrrolo[2,3-b]pyridin-5-yl)benzaldehyde]",> 70%,> 70%,> 70%,> 70%,–,–,–
"CSc1ccc(-c2cnc3[nH]cc(-c4ccnc(NC5CCCCCC5)n4)c3c2)cc1 [1A48, N-cycloheptyl-4-(5-(4-(methylthio)phenyl)-1H-pyrrolo[2,3-b]pyridin-3-yl)pyrimidin-2-amine]",> 50%,> 50%,> 50%,> 50%,–,–,–
"FC(F)(F)c1cccc(-c2cnc3[nH]cc(-c4ccnc(NC5CCCC5)n4)c3c2)c1 [1A24, N-cyclopentyl-4-(5-(3-(trifluoromethyl)phenyl)-1H-pyrrolo[2,3-b]pyridin-3-yl)pyrimidin-2-amine]",> 50%,> 50%,> 50%,> 50%,–,–,–
"FC(F)(F)c1cccc(-c2cnc3[nH]cc(-c4ccnc(NC5CCCCCC5)n4)c3c2)c1 [1A44, N-cycloheptyl-4-(5-(3-(trifluoromethyl)phenyl)-1H-pyrrolo[2,3-b]pyridin-3-yl)pyrimidin-2-amine]",> 70%,–,> 50%,–,–,–,–
"CN1CC[C@H](c2c(O)cc(O)c3c(=O)cc(-c4ccccc4Cl)oc23)[C@H](O)C1 [Flavopyr idol, flavopiridol, reference compound]",> 70%,–,–,–,–,–,> 70%
"Fc1cccc(-c2cnc3[nH]cc(-c4ccnc(NC5CCCCCC5)n4)c3c2)c1 [1A45, N-cycloheptyl-4-(5-(3-fluorophenyl)-1H-pyrrolo[2,3-b]pyridin-3-yl)pyrimidin-2-amine]",> 70%,–,> 70%,–,–,–,–
"Cc1ccc(-c2cnc3[nH]cc(-c4ccnc(NC5CC5)n4)c3c2)cc1 [1A6, N-cyclopropyl-4-(5-(p-tolyl)-1H-pyrrolo[2,3-b]pyridin-3-yl)pyrimidin-2-amine]",> 70%,> 70%,> 70%,> 70%,–,–,–
"Cc1cccc(-c2cnc3[nH]cc(-c4ccnc(NC5CCCCCC5)n4)c3c2)c1 [1A47, N-cycloheptyl-4-(5-(m-tolyl)-1H-pyrrolo[2,3-b]pyridin-3-yl)pyrimidin-2-amine]",> 50%,> 50%,> 50%,> 50%,–,–,–

# Other lines, results leading:
inhibition at 0.5 µM (CDK-2/cyclin A; [1]),inhibition at 0.5 µM (CDK-2/cyclin A; [2]),inhibition at 0.5 µM (CDK-9/Cyclin T1; [3]),inhibition at 0.5 µM (CDK-9/Cyclin T1; [4]),inhibition at 0.5 µM (CDK-2/cyclin A; [5]),inhibition at 0.5 µM (CDK-9/Cyclin T1; [6]),"inhibition at 0.5 µM (CDK-9/Cyclin T1; read-out: In vitro CDK9 % of inhibition, at 500 nM, Table-6)",SMILES
> 70%,> 70%,> 70%,> 70%,–,–,–,"c1ccc2sc(-c3cnc4[nH]cc(-c5ccnc(NC6CC6)n5)c4c3)cc2c1 [1A18, 4-(5-(benzo[b]thiophen-2-yl)-1H-pyrrolo[2,3-b]pyridin-3-yl)-N-cyclopropylpyrimidin-2-amine]"
–,> 70%,–,> 70%,> 70%,> 70%,–,"Cc1ccc(-c2cnc3[nH]cc(-c4ccnc(NCCc5ccccc5)n4)c3c2)cc1 [1B6, N-phenethyl-4-(5-(p-tolyl)-1H-pyrrolo[2,3-b]pyridin-3-yl)pyrimidin-2-amine]"
–,> 50%,–,> 50%,> 50%,> 50%,–,"CSc1ccc(-c2cnc3[nH]cc(-c4ccnc(NCCc5ccccc5)n4)c3c2)cc1 [1B8, 4-(5-(4-(methylthio)phenyl)-1H-pyrrolo[2,3-b]pyridin-3-yl)-N-phenethylpyrimidin-2-amine]"
–,> 70%,–,> 70%,> 70%,> 70%,–,"FC(F)(F)c1cccc(-c2cnc3[nH]cc(-c4ccnc(NCCc5ccccc5)n4)c3c2)c1 [1B4, N-phenethyl-4-(5-(3-(trifluoromethyl)phenyl)-1H-pyrrolo[2,3-b]pyridin-3-yl)pyrimidin-2-amine]"
> 50%,> 50%,> 50%,> 50%,–,–,–,"c1ccc2c(-c3cnc4[nH]cc(-c5ccnc(NC6CCCC6)n5)c4c3)nccc2c1 [1A40, N-cyclopentyl-4-(5-(isoquinolin-1-yl)-1H-pyrrolo[2,3-b]pyridin-3-yl)pyrimidin-2-amine]"
> 70%,> 70%,> 70%,> 70%,–,–,–,"CSc1ccccc1-c1cnc2[nH]cc(-c3ccnc(NC4CC4)n3)c2c1 [1A9, N-cyclopropyl-4-(5-(2-(methylthio)phenyl)-1H-pyrrolo[2,3-b]pyridin-3-yl)pyrimidin-2-amine]"
–,> 70%,–,> 70%,> 70%,> 70%,–,"Cc1cccc(-c2cnc3[nH]cc(-c4ccnc(NCCc5ccccc5)n4)c3c2)c1 [1B7, N-phenethyl-4-(5-(m-tolyl)-1H-pyrrolo[2,3-b]pyridin-3-yl)pyrimidin-2-amine]"
–,> 50%,–,> 50%,> 50%,> 50%,–,"c1ccc(CCNc2nccc(-c3c[nH]c4ncc(-c5cccc6ccccc56)cc34)n2)cc1 [1B14, 4-(5-(naphthalen-1-yl)-1H-pyrrolo[2,3-b]pyridin-3-yl)-N-phenethylpyrimidin-2-amine]"
–,> 50%,–,> 50%,> 50%,> 50%,–,"c1ccc(CCNc2nccc(-c3c[nH]c4ncc(-c5nccc6ccccc56)cc34)n2)cc1 [1B20, 4-(5-(isoquinolin-1-yl)-1H-pyrrolo[2,3-b]pyridin-3-yl)-N-phenethylpyrimidin-2-amine]"
–,> 70%,–,> 70%,> 70%,> 70%,–,"c1ccc2sc(-c3cnc4[nH]cc(-c5ccnc(NC6CCCCCC6)n5)c4c3)cc2c1 [1A58, 4-(5-(benzo[b]thiophen-2-yl)-1H-pyrrolo[2,3-b]pyridin-3-yl)-N-cycloheptylpyrimidin-2-amine]"

# — patent EP3383875B1, “3-PYRIMIDINYL PYRROLO [2,3-B] PYRIDINE AS ANTICANCER AGENTS AND THE PROCESS FOR THE PREPARATION THEREOF” (Council Of Scientific & Industrial Research, priority 2015, dated 2017)
